Laboratory results published in PubChem BioAssay (NCI).
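Where inhibition never reached the appropriate level, the endpoint shown equals the highest concentration tested. Otherwise, values were interpolated linearly from a five-concentration, 48-hour dose response in 96-well plates. TGI is the concentration that stops growth completely.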

Assays:
Assay in all cases: inhibition of tumour cell growth, NCI panel, 48 h
HCT-15 colon = test system: HCT-15 colon
COLO 205 colon = test system: COLO 205 colon
OVCAR-8 ovarian = test system: OVCAR-8 ovarian
ACHN renal = test system: ACHN renal
OVCAR-4 ovarian = test system: OVCAR-4 ovarian
PC-3 prostate = test system: PC-3 prostate
TK-10 renal = test system: TK-10 renal
LOX IMVI melanoma = test system: LOX IMVI melanoma
EKVX NSCLC = test system: EKVX NSCLC
HCT-116 colon = test system: HCT-116 colon
UO-31 renal = test system: UO-31 renal
SF-295 CNS = test system: SF-295 CNS
UACC-257 melanoma = test system: UACC-257 melanoma
K-562 leukemia = test system: K-562 leukemia
CCRF-CEM leukemia = test system: CCRF-CEM leukemia
SN12C renal = test system: SN12C renal
SK-MEL-2 melanoma = test system: SK-MEL-2 melanoma
A549 NSCLC = test system: A549 NSCLC
SF-539 CNS = test system: SF-539 CNS
SNB-75 CNS = test system: SNB-75 CNS
HL-60(TB) leukemia = test system: HL-60(TB) leukemia
DU-145 prostate = test system: DU-145 prostate
MDA-N = test system: MDA-N
OVCAR-5 ovarian = test system: OVCAR-5 ovarian
SNB-19 CNS = test system: SNB-19 CNS
MDA-MB-231 breast = test system: MDA-MB-231 breast
MCF7 breast = test system: MCF7 breast
NCI/ADR-RES ovarian = test system: NCI/ADR-RES ovarian
KM12 colon = test system: KM12 colon
HCC-2998 colon = test system: HCC-2998 colon
OVCAR-3 ovarian = test system: OVCAR-3 ovarian
HOP-92 NSCLC = test system: HOP-92 NSCLC
SK-MEL-5 melanoma = test system: SK-MEL-5 melanoma
NCI-H23 lung = test system: NCI-H23 lung
IGROV1 ovarian = test system: IGROV1 ovarian
MDA-MB-435 = test system: MDA-MB-435
786-0 renal = test system: 786-0 renal
M14 melanoma = test system: M14 melanoma
SK-MEL-28 melanoma = test system: SK-MEL-28 melanoma
MOLT-4 leukemia = test system: MOLT-4 leukemia
T-47D breast = test system: T-47D breast
A498 renal = test system: A498 renal
HT29 colon = test system: HT29 colon
NCI-H226 lung = test system: NCI-H226 lung
CAKI-1 renal = test system: CAKI-1 renal
RXF 393 renal = test system: RXF 393 renal
MALME-3M melanoma = test system: MALME-3M melanoma
HOP-62 NSCLC = test system: HOP-62 NSCLC
U251 CNS = test system: U251 CNS
SW-620 colon = test system: SW-620 colon
NCI-H522 lung = test system: NCI-H522 lung
UACC-62 melanoma = test system: UACC-62 melanoma
SK-OV-3 ovarian = test system: SK-OV-3 ovarian

## C=CC[n+]1c2ccccc2n2cc([N+](=O)[O-])ccc21
HCT-15 colon
  TGI: > 100 µM
COLO 205 colon
  TGI: 26.2 µM
OVCAR-8 ovarian
  TGI: 86.2 µM
ACHN renal
  TGI: > 100 µM
OVCAR-4 ovarian
  TGI: > 100 µM
PC-3 prostate
  TGI: > 100 µM
TK-10 renal
  TGI: > 100 µM
LOX IMVI melanoma
  TGI: > 100 µM
EKVX NSCLC
  TGI: > 100 µM
HCT-116 colon
  TGI: 78.7 µM
UO-31 renal
  TGI: > 100 µM
SF-295 CNS
  TGI: > 100 µM
UACC-257 melanoma
  TGI: 44.6 µM
K-562 leukemia
  TGI: 59.2 µM
CCRF-CEM leukemia
  TGI: 55.3 µM
SN12C renal
  TGI: 68.7 µM
SK-MEL-2 melanoma
  TGI: 95.8 µM
A549 NSCLC
  TGI: > 100 µM
SF-539 CNS
  TGI: > 100 µM
SNB-75 CNS
  TGI: > 100 µM
HL-60(TB) leukemia
  TGI: 50.3 µM
DU-145 prostate
  TGI: > 100 µM
MDA-N
  TGI: 50.7 µM
OVCAR-5 ovarian
  TGI: > 100 µM
SNB-19 CNS
  TGI: > 100 µM
MDA-MB-231 breast
  TGI: > 100 µM
MCF7 breast
  TGI: 79.8 µM
NCI/ADR-RES ovarian
  TGI: > 100 µM
KM12 colon
  TGI: > 100 µM
HCC-2998 colon
  TGI: > 100 µM
OVCAR-3 ovarian
  TGI: 69.7 µM
HOP-92 NSCLC
  TGI: 46.5 µM
SK-MEL-5 melanoma
  TGI: 42 µM
NCI-H23 lung
  TGI: 43 µM
IGROV1 ovarian
  TGI: 51.5 µM
MDA-MB-435
  TGI: 89.2 µM
786-0 renal
  TGI: > 100 µM
M14 melanoma
  TGI: > 100 µM
SK-MEL-28 melanoma
  TGI: 89.9 µM
MOLT-4 leukemia
  TGI: 67.5 µM
T-47D breast
  TGI: > 100 µM
A498 renal
  TGI: 55 µM
HT29 colon
  TGI: 39.4 µM
NCI-H226 lung
  TGI: 69.3 µM
CAKI-1 renal
  TGI: > 100 µM
RXF 393 renal
  TGI: > 100 µM
MALME-3M melanoma
  TGI: 30.2 µM
HOP-62 NSCLC
  TGI: > 100 µM
U251 CNS
  TGI: > 100 µM
SW-620 colon
  TGI: > 100 µM
NCI-H522 lung
  TGI: 41 µM
UACC-62 melanoma
  TGI: 74.9 µM
SK-OV-3 ovarian
  TGI: > 100 µM
